According to patent US11878975B2, “Substituted indole compounds useful as TLR inhibitors” (BRISTOL-MYERS SQUIBB COMPANY, priority 2017, dated 2024):

Legend:
Format in all cases: cell-based
human TLR9 = molecular target: T1, human TLR9 (Homo sapiens, UniProt Q9NR96); experiment: TLR9 inhibition reporter assay (HEK-Blue cells, SEAP reporter, ODN2006 stimulation); conditions: HEK-Blue cells overexpressing human TLR9, SEAP reporter, ODN2006 5 nM
T1 construct: host or cells: HEK-Blue cells
T1 sequence (Q9NR96 26-1032): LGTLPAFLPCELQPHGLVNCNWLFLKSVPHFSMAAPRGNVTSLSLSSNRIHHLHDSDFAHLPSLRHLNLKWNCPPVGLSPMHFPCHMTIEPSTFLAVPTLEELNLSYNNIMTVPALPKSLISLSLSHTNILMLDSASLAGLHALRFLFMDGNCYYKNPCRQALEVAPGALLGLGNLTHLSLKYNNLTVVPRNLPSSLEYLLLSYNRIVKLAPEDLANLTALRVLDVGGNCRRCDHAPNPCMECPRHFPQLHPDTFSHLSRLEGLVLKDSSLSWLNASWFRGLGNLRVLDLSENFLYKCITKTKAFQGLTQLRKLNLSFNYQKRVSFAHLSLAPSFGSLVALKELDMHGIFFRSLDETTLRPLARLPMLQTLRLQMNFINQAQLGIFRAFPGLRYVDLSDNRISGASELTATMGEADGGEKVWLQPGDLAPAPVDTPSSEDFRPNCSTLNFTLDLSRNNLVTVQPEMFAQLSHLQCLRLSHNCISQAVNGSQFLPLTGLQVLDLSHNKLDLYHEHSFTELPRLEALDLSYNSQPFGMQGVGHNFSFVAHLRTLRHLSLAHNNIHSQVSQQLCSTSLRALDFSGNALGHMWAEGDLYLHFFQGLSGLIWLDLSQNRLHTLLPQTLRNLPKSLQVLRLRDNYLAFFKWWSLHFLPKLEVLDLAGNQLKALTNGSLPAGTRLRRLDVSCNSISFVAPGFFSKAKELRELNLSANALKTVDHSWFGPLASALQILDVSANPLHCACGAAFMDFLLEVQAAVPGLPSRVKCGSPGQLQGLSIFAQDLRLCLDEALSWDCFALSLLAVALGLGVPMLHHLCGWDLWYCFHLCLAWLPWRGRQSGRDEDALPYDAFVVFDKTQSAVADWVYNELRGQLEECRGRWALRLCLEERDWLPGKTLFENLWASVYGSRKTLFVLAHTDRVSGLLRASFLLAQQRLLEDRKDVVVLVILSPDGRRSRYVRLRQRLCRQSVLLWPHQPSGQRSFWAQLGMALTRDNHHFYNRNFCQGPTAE
Summary of the method: (§1)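 Percent inhibition is derived from SEAP signal, scaled between agonist-plus-DMSO wells and wells given a known inhibitor. Test compounds (0.05 nM–50 μM) are pre-incubated 30 min at room temperature before agonist addition (TLR7: 7.5 μM gardiquimod; TLR8: 15.9 μM R848; TLR9: 5 nM ODN2006) and 22 h culture at 37 °C.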

human TLR8 = molecular target: T2, human TLR8 (Homo sapiens, UniProt Q9NR97); experiment: TLR8 inhibition reporter assay (HEK-Blue cells, SEAP reporter, R848 stimulation); conditions: HEK-Blue cells overexpressing human TLR8, SEAP reporter, R848 15.9 μM
T2 construct: host or cells: HEK-Blue cells
T2 sequence (Q9NR97 27-1041): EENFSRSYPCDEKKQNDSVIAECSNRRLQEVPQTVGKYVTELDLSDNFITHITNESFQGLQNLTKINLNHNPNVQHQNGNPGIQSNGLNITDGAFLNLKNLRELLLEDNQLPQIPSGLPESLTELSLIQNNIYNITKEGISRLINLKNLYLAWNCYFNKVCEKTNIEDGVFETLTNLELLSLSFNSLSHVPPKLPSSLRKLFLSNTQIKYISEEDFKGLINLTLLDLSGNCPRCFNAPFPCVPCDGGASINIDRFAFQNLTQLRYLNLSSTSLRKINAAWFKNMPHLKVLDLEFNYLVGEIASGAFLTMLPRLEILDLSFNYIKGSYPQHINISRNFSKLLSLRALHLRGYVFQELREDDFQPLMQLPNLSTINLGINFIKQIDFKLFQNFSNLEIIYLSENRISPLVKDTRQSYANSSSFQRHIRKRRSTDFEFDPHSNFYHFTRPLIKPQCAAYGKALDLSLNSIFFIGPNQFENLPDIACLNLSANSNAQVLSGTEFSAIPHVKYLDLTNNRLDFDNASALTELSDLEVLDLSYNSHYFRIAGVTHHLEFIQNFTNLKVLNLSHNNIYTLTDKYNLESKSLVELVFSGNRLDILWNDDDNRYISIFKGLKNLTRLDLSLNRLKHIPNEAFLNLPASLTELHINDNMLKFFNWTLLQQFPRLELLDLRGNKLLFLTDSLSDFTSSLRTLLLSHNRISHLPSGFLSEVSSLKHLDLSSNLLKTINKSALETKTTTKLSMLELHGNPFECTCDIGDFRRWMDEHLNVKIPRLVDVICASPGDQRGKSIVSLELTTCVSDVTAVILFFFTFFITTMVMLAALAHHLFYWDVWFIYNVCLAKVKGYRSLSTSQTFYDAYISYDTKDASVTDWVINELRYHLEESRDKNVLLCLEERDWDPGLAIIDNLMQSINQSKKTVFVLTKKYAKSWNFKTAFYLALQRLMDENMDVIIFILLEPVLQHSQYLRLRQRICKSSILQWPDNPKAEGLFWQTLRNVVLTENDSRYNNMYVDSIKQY
Summary of the method: as §1

human TLR7 = molecular target: T3, human TLR7 (Homo sapiens, UniProt Q9NYK1); experiment: TLR7 inhibition reporter assay (HEK-Blue cells, SEAP reporter, gardiquimod stimulation); conditions: HEK-Blue cells overexpressing human TLR7, SEAP reporter, gardiquimod 7.5 μM
T3 construct: host or cells: HEK-Blue cells
T3 sequence (Q9NYK1 27-1049): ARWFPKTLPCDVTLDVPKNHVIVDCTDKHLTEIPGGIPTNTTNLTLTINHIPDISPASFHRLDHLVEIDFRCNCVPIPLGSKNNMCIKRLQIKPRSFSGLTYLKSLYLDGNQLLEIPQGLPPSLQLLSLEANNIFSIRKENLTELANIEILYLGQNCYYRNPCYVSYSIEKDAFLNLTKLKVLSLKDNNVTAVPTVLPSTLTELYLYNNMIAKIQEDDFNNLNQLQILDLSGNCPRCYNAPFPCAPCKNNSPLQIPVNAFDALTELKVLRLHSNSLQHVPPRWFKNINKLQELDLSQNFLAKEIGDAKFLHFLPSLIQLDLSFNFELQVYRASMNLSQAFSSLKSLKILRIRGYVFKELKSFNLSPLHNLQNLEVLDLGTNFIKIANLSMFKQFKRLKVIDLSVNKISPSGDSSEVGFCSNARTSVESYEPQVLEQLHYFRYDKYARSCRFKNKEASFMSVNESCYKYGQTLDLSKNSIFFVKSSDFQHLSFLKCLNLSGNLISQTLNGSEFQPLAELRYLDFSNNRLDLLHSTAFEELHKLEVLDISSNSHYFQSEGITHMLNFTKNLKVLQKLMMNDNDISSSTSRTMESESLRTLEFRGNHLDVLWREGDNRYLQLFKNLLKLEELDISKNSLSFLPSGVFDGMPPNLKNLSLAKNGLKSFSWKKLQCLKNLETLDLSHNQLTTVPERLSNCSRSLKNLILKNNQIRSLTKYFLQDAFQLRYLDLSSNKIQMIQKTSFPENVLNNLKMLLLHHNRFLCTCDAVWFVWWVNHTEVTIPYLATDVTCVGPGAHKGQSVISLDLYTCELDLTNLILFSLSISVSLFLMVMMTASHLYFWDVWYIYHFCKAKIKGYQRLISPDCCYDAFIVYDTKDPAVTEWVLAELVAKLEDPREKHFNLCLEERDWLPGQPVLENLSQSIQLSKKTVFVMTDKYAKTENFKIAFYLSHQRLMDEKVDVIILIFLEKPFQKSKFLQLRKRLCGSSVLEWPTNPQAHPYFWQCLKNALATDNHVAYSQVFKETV
Summary of the method: as §1

Row | SMILES | IC50 (human TLR9) | IC50 (human TLR8) | IC50 (human TLR7)
1 | CNC(=O)CN1CC(c2ccc3[nH]c(-c4cn5ncnc5c(C)c4C)c(C(C)C)c3c2)OCC1(C)C (stereo not drawn) [Example 389] | > 50000 nM | 51 nM | 22 nM
2 | CCc1c(-c2ccc(OC)c(OC)c2)[nH]c2ccc(CN3CCNCC3)cc12 [Example 390, 2-(3,4-dimethoxyphenyl)-3-ethyl-5-(piperazin-1-ylmethyl)-1H-indole] | 5880 nM | 73 nM | 138 nM
3 | CCc1c(-c2ccc(OC)c(OC)c2)[nH]c2ccc(CN3CC4CNCC4C3)cc12 (stereo not drawn) [Example 391] | 527 nM | 354 nM | 164 nM
4 | CCc1c(-c2ccc(OC)c(OC)c2)[nH]c2ccc(CN3CC4CN(C(C)C)CC4C3)cc12 (stereo not drawn) [Example 392, 2-(3,4-dimethoxyphenyl)-3-ethyl-5-{[5-(propan-2-yl)-octahydropyrrolo[3,4-c]pyrrol-2-yl]methyl}-1H-indole] | 1180 nM | 553 nM | 2390 nM
5 | Cc1cc(-c2[nH]c3ccc(CCN4CCOCC4)cc3c2C(C)C)cc(C)n1 [Example 393, 2-(2,6-dimethylpyridin-4-yl)-5-[2-(morpholin-4-yl)ethyl]-3-(propan-2-yl)-1H-indole] | 883 nM | 9.3 nM | 18 nM
6 | CCc1c(-c2ccnc(C)c2)[nH]c2ccc(CN)cc12 [Example 394, [3-ethyl-2-(2-methylpyridin-4-yl)-1H-indol-5-yl]methanamine] | 2590 nM | 1080 nM | 2560 nM
7 | CCc1c(-c2ccnc(C)c2)[nH]c2ccc(CNC(=O)CCN(C)C)cc12 [Example 395, 3-(dimethylamino)-N-{[3-ethyl-2-(2-methylpyridin-4-yl)-1H-indol-5-yl]methyl}propanamide] | 823 nM | 182 nM | 966 nM
8 | Cc1cc(-c2[nH]c3ccc(CC4CCCN4)cc3c2C(C)C)cn2ncnc12 (stereo not drawn) [Example 398, 2-{8-methyl-[1,2,4]triazolo[1,5-a]pyridin-6-yl}-3-(propan-2-yl)-5-[(pyrrolidin-2-yl)methyl]-1H-indole] | 1580 nM | 3.5 nM | 1 nM
9 | Cc1c(-c2[nH]c3ccc(CC4CNC4)cc3c2C(C)C)cn2ncnc2c1C [Example 399, 5-[(azetidin-3-yl)methyl]-2-{7,8-dimethyl-[1,2,4]triazolo[1,5-a]pyridin-6-yl}-3-(propan-2-yl)-1H-indole] | 1960 nM | 9.8 nM | 11 nM
10 | Cc1c(-c2[nH]c3ccc(CC4CN(CC(=O)N(C)C)C4)cc3c2C(C)C)cn2ncnc2c1C [Example 400] | 2820 nM | 5.1 nM | 18 nM
11 | Cc1cc(-c2[nH]c3ccc(CCN4CCS(=O)(=O)CC4)cc3c2C(C)C)cc(C)n1 [Example 401] | 3430 nM | 86 nM | 27 nM
12 | Cc1cc(-c2[nH]c3ccc(CCN4CCS(=O)(=O)CC4)cc3c2C(C)C)cn(C)c1=O [Example 402] | > 50000 nM | 74 nM | 108 nM
13 | Cc1cc(-c2[nH]c3ccc(CCN4CCOCC4)cc3c2C(C)C)cn(C)c1=O [Example 403] | 23000 nM | 7.5 nM | 36 nM
14 | Cc1cc(-c2[nH]c3ccc(CCN4CCCC(F)(F)C4)cc3c2C(C)C)cn(C)c1=O [Example 404] | > 50000 nM | 31 nM | 50 nM
15 | Cc1cc(-c2[nH]c3ccc(CCN4CCCC4)cc3c2C(C)C)cn(C)c1=O [Example 405] | 13700 nM | 8.4 nM | 35 nM
16 | Cc1cc(-c2[nH]c3ccc(CCN4CCCC(F)C4)cc3c2C(C)C)cn(C)c1=O (stereo not drawn) [Example 406] | 8810 nM | 3.2 nM | 14 nM
17 | Cc1cc(-c2[nH]c3ccc(CCN4CCC(F)CC4)cc3c2C(C)C)cn(C)c1=O [Example 407] | 13600 nM | 1.4 nM | 9 nM
18 | Cc1cc(-c2[nH]c3ccc(CCN4CC[C@H](F)C4)cc3c2C(C)C)cn(C)c1=O [Example 408] | 13000 nM | 2.3 nM | 15 nM
19 | Cc1cc(-c2[nH]c3ccc(CCN4CCCCC4)cc3c2C(C)C)cn(C)c1=O [Example 409] | 15600 nM | 3 nM | 23 nM
20 | Cc1cc(-c2[nH]c3ccc(CCN4CC[C@@H](F)C4)cc3c2C(C)C)cn(C)c1=O [Example 410] | 15600 nM | 0.72 nM | 13 nM
21 | COc1cc(-c2[nH]c3ccc(CCN4CCOCC4)cc3c2C(C)C)cn2ncnc12 [Example 411] | 8960 nM | 7.9 nM | 7 nM
22 | COc1cc(-c2[nH]c3ccc(CCN4CCCCC4)cc3c2C(C)C)cn2ncnc12 [Example 412] | 5270 nM | 2.9 nM | 5 nM
23 | COc1cc(-c2[nH]c3ccc(CCN4CCN(C)CC4)cc3c2C(C)C)cn2ncnc12 [Example 413] | 2750 nM | 0.9 nM | 2 nM
